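Each compound was tested at five concentrations against cells in 96-well plates for 48 hours. GI50: concentration for 50% inhibition of growth.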 Activity calls are given as the source filed them. Rule as the data show it: active = GI50 up to about 1.1 µM and inactive = higher.
Columns and labels:
Assay in all cases: DTP human tumour cell line panel, 48 h
OVCAR-8 = system: OVCAR-8
UACC-62 = system: UACC-62
T47D = system: T47D
SF-539 = system: SF-539
SNB-19 = system: SNB-19
SF-268 = system: SF-268
SF-295 = system: SF-295
HT-29 = system: HT-29
SK-MEL-5 = system: SK-MEL-5
UACC-257 = system: UACC-257
HOP-62 = system: HOP-62
NCI-H23 = system: NCI-H23
TK-10 = system: TK-10
HCT-15 = system: HCT-15
SK-OV-3 = system: SK-OV-3
CCRF-CEM = system: CCRF-CEM
NCI-H226 = system: NCI-H226
MOLT-4 = system: MOLT-4
HL-60 = system: HL-60
BT-549 = system: BT-549

Row | SMILES | GI50 (OVCAR-8) | GI50 (UACC-62) | GI50 (T47D) | GI50 (SF-539) | GI50 (SNB-19) | GI50 (SF-268) | GI50 (SF-295) | GI50 (HT-29) | GI50 (SK-MEL-5) | GI50 (UACC-257) | GI50 (HOP-62) | GI50 (NCI-H23) | GI50 (TK-10) | GI50 (HCT-15) | GI50 (SK-OV-3) | GI50 (CCRF-CEM) | GI50 (NCI-H226) | GI50 (MOLT-4) | GI50 (HL-60) | GI50 (BT-549)
1 | N#CCCC1(CCC#N)CCCCCCC(CCC#N)(CCC#N)C(=O)C1=O | > 100 µM (inactive) | > 100 µM (inactive) | 11.9 µM (inactive) | > 100 µM (inactive) | > 100 µM (inactive) | > 100 µM (inactive) | > 100 µM (inactive) | > 100 µM (inactive) | > 100 µM (inactive) | > 100 µM (inactive) | > 100 µM (inactive) | > 100 µM (inactive) | > 100 µM (inactive) | > 100 µM | > 100 µM (inactive) |  |  |  |  | 
2 | COc1ccc(NC(C)=O)cc1C1CCC(=O)N1 (centres undefined) | > 100 µM (inactive) | > 100 µM (inactive) | > 100 µM (inactive) | > 100 µM (inactive) | > 100 µM (inactive) | > 100 µM (inactive) | > 100 µM (inactive) | > 100 µM (inactive) | > 100 µM (inactive) | > 100 µM (inactive) | > 100 µM (inactive) | > 100 µM (inactive) | > 100 µM (inactive) | > 100 µM | > 100 µM (inactive) | > 100 µM (inactive) | > 100 µM (inactive) | > 100 µM (inactive) | > 100 µM (inactive) | 
3 | CC1(C)N=C(/C=N/O)C(C)(C)N1O | > 100 µM (inactive) | > 100 µM (inactive) | > 100 µM (inactive) | > 100 µM (inactive) | 87.3 µM (inactive) | > 100 µM (inactive) | > 100 µM (inactive) | > 100 µM (inactive) | > 100 µM (inactive) |  | > 100 µM (inactive) | > 100 µM (inactive) | > 100 µM (inactive) | > 100 µM | > 100 µM (inactive) | > 100 µM (inactive) | > 100 µM (inactive) | > 100 µM (inactive) | > 100 µM (inactive) | 
4 | Cc1ccccc1NC(=O)C(=O)C(C#N)c1ccccc1C (centres undefined) | > 100 µM (inactive) | > 100 µM (inactive) |  | > 100 µM (inactive) | > 100 µM (inactive) | > 100 µM (inactive) | > 100 µM (inactive) | > 100 µM (inactive) | > 100 µM (inactive) | > 100 µM (inactive) | > 100 µM (inactive) | > 100 µM (inactive) | > 100 µM (inactive) | > 100 µM | > 100 µM (inactive) | 30.4 µM (inactive) | > 100 µM (inactive) | > 100 µM (inactive) | 53.3 µM (inactive) | 
5 | CNc1nc(N)c(N=O)c(Nc2ccc(Br)cc2)n1 | > 100 µM (inactive) | > 100 µM (inactive) |  | > 100 µM (inactive) | > 100 µM (inactive) | 72.9 µM (inactive) | > 100 µM (inactive) | > 100 µM (inactive) | > 100 µM (inactive) | > 100 µM (inactive) | > 100 µM (inactive) | > 100 µM (inactive) | > 100 µM (inactive) | > 100 µM |  | 81.8 µM (inactive) |  | 68.4 µM (inactive) | > 100 µM (inactive) | > 100 µM (inactive)
6 | FC(F)(F)C1(Br)C(c2ccccc2)=C1c1ccccc1 | 15 µM (inactive) | 15.8 µM (inactive) |  | 17.9 µM (inactive) | 22.3 µM (inactive) | 19.3 µM (inactive) | 13 µM (inactive) | 17.9 µM (inactive) | 15.4 µM (inactive) | 18.5 µM (inactive) | 18.5 µM (inactive) | 16.6 µM (inactive) | 22.9 µM (inactive) | 12.3 µM | 45.2 µM (inactive) | 4.43 µM (inactive) | 17.7 µM (inactive) | 2.7 µM (inactive) | 7.28 µM (inactive) | 
7 | CC1=NN(c2cccc(Cl)c2)C(=N/c2nc3ccccc3s2)/C1=C\c1cccs1 | 48.3 µM (inactive) |  | 39.4 µM (inactive) | 42 µM (inactive) |  | 33.2 µM (inactive) | 25.3 µM (inactive) | 23.4 µM (inactive) | 28.1 µM (inactive) | 37.4 µM (inactive) | 19.5 µM (inactive) | 22.5 µM (inactive) | 45.7 µM (inactive) | 32.8 µM | 25.9 µM (inactive) | 19.6 µM (inactive) | 36.4 µM (inactive) | 26.8 µM (inactive) | 14.3 µM (inactive) | 
8 | NCc1ccc(-c2ccc(CN)s2)s1 | 86.5 µM (inactive) | 14.6 µM (inactive) | 69.8 µM (inactive) | > 100 µM (inactive) | > 100 µM (inactive) |  | > 100 µM (inactive) | > 100 µM (inactive) | > 100 µM (inactive) | 42.4 µM (inactive) | > 100 µM (inactive) | > 100 µM (inactive) | 11.3 µM (inactive) | > 100 µM | 83.8 µM (inactive) | > 100 µM (inactive) | 41.1 µM (inactive) | > 100 µM (inactive) | > 100 µM (inactive) | 
9 | O=[N+]([O-])c1cccc2nccc(NCCN3CCOCC3)c12 | 20.1 µM (inactive) | > 10 µM (inactive) | 23 µM (inactive) | 20.3 µM (inactive) | 25.7 µM (inactive) | 20.5 µM (inactive) | 13.9 µM (inactive) | 13.5 µM (inactive) | 10 µM (inactive) | 10 µM (inactive) | 15.5 µM (inactive) | 11.7 µM (inactive) | 23.7 µM (inactive) | 9.35 µM | 35.2 µM (inactive) | 5.55 µM (inactive) | 10.2 µM (inactive) | 8.43 µM (inactive) | 10.6 µM (inactive) | 
10 | CCNc1cc2c3c(c1)CCCN3CCC2 | 21.2 µM (inactive) | 17.7 µM (inactive) | 18.1 µM (inactive) | 20.9 µM (inactive) | 16 µM (inactive) | 16.9 µM (inactive) | 18.2 µM (inactive) | 6.78 µM (inactive) | 13.7 µM (inactive) | 19.7 µM (inactive) | 14.6 µM (inactive) | 6.31 µM (inactive) | 31.8 µM (inactive) | 19.6 µM | 20 µM (inactive) | 2.38 µM (inactive) | 20.4 µM (inactive) | 16.9 µM (inactive) | 11.8 µM (inactive) | 
11 | CC(C)(C)OC(=O)C1=C(O)C(C(=O)OC(C)(C)C)C23CCCCC12C(C(=O)OC(C)(C)C)C(O)=C3C(=O)OC(C)(C)C (centres undefined) | > 100 µM (inactive) | > 100 µM (inactive) |  | > 100 µM (inactive) | > 100 µM (inactive) | > 100 µM (inactive) | > 100 µM (inactive) | > 100 µM (inactive) | > 100 µM (inactive) | > 100 µM (inactive) | > 100 µM (inactive) | > 100 µM (inactive) | > 100 µM (inactive) | > 100 µM | > 100 µM (inactive) | > 100 µM (inactive) | > 100 µM (inactive) | > 100 µM (inactive) | > 100 µM (inactive) | 
12 | O=C1C2=C(c3ccccc31)C(c1ccccc1Cl)NC(S)=N2 (centres undefined) | 53 µM (inactive) | 34.6 µM (inactive) |  | 97.1 µM (inactive) | 52.1 µM (inactive) | 51.5 µM (inactive) | 51.1 µM (inactive) | 51.9 µM (inactive) | 20.2 µM (inactive) | 51.3 µM (inactive) | > 100 µM (inactive) | 39.4 µM (inactive) | 75.2 µM (inactive) | 59.2 µM | > 100 µM (inactive) | 48.2 µM (inactive) | 8.65 µM (inactive) | 31.8 µM (inactive) | 34 µM (inactive) | 
13 | CN(C)c1cccc(NC2=NCCO2)c1 | 66.8 µM (inactive) | 50.7 µM (inactive) | 69.2 µM (inactive) | 46.6 µM (inactive) | 52.8 µM (inactive) | 92 µM (inactive) | > 100 µM (inactive) | 19.2 µM (inactive) | 43.6 µM (inactive) | 48.9 µM (inactive) | 81.1 µM (inactive) | 23.6 µM (inactive) | > 100 µM (inactive) | 45.1 µM |  | 33 µM (inactive) | 47.2 µM (inactive) | 46.7 µM (inactive) | 23.1 µM (inactive) | 
14 | C=CN(C=C)C(=O)Cn1cc(-c2ccccc2)nn1 | > 100 µM (inactive) |  |  | > 100 µM (inactive) | > 100 µM (inactive) | > 100 µM (inactive) | > 100 µM (inactive) | > 100 µM (inactive) | > 100 µM (inactive) | > 100 µM (inactive) | > 100 µM (inactive) | > 100 µM (inactive) | > 100 µM (inactive) | > 100 µM |  | > 100 µM (inactive) |  | > 100 µM (inactive) | > 100 µM (inactive) | > 100 µM (inactive)
15 | C=CCn1c2c(sc1=S)C(S)NC=N2 (centres undefined) | > 100 µM (inactive) | 27.5 µM (inactive) |  | 85.1 µM (inactive) | 99.8 µM (inactive) | 4.65 µM (inactive) | 61.2 µM (inactive) | > 100 µM (inactive) | 54.5 µM (inactive) | 71 µM (inactive) | 39 µM (inactive) | 90.6 µM (inactive) | > 100 µM (inactive) | > 100 µM | > 100 µM (inactive) | 95.9 µM (inactive) | > 100 µM (inactive) | > 100 µM (inactive) | > 100 µM (inactive) | 
16 | C=C1C(=O)OC2/C=C(\C=O)CC/C=C(\C)C(O)C[C@@H]12 (some centres undefined) | 3.17 µM (inactive) | 5.87 µM (inactive) |  | 14.2 µM (inactive) | 15.4 µM (inactive) | 8.61 µM (inactive) | 13.7 µM (inactive) | 3.08 µM (inactive) | 9.27 µM (inactive) | 5.93 µM (inactive) | 28.1 µM (inactive) | 5.18 µM (inactive) | 12.3 µM (inactive) | 3.65 µM | 21.3 µM (inactive) | 2.57 µM (inactive) | 20.4 µM (inactive) | 2.77 µM (inactive) | 2.86 µM (inactive) | 
